System: oxidation of the L-DOPA under the action of the bacterial extract (intracellular extract of Cutibacterium acnes CIP 53.117)
Assay: In vitro evaluation of the ability to inhibit the development of the colour (absorbance at 475 nm of L-DOPA + Cutibacterium acnes extract)
Assay type: biochemical
Conditions: for inhibiting the development of the colour (result in words): compared with Reference (absence of treatment); for optical density at 475 nm: 32° C.; for % inhib (percentage of inhibition of the formation of the coloured product): from initial rate of oxidation between 10 and 40 minutes vs reference composition
Description: This method is based on the measurement of absorbance, over time, carried out directly on a composition formed of a mixture of intracellular extract of bacteria of Cutibacterium acnes type, of 3,4-dihydroxy-L-phenylalanine (L-DOPA) and of a test compound. The measurements are compared with those carried out for a mixture of an intracellular extract of bacteria of Cutibacterium acnes type and of 3,4-dihydroxy-L-phenylalanine (L-DOPA), in the absence of test compound (reference). The method is adapted from a method for the enzymatic assay of the tyrosinase activity (Behbahani et al., Microchemical Journal (1993), 47, 251), which is based on the absorbance properties at 475 nm of a coloured intermediate of the pathway for the biosynthesis of melanin starting from L-DOPA, namely dopachrome, a product of the oxidation of L-DOPA. An intracellular extract of bacteria of Cutibacterium acnes CIP 53.117 type stored at 4° C. in the lyophilized form is suspended in 1×PBS (supplied by Gibco BRL Life Technologies) at a concentration of 6 mg/ml. A solution of L-DOPA at a concentration of 0.5 mg/ml is prepared by bringing together L-DOPA (supplied by Sigma-Aldrich) and milliQ water, so as to have an L-DOPA concentration of 1 mg/ml, then diluting with 1×PBS (Dulbecco's Phosphate Buffered Saline, supplied by Gibco BRL Life Technologies). The mixture of 50 μl of these two solutions and of 100 μl of 1×PBS (Dulbecco's Phosphate Buffered Saline, supplied by Gibco BRL Life Technologies) results in a composition with a total volume of 200 μl containing L-DOPA (at a concentration of 125 μg/ml) and Cutibacterium acnes extract (at a concentration of 1.5 mg/ml). The test compositions and the reference composition are introduced separately into wells of a 96-well microplate suitable for reading in visible spectrophotometry, and placed at a temperature of 32° C. The formation of a coloured product is monitored over time by spectrophotometry. To do this, the absorbance, or optical density (O.D.), is measured at 475 nm from the time 0 to the time 2 hours by means of a Spectra Max M5e reader and the Spectra Max software (the time 0 corresponds to the introduction of the composition into the wells). The ability to inhibit the development of the colour of a given compound was assessed by comparing the absorbance measurements obtained for the test compositions with those obtained for the reference composition. More specifically, the inhibitory effect of the test compound was evaluated by comparing the initial rate of oxidation of the L-DOPA under the action of the bacterial extract at 475 nm for the test composition with that of the reference composition in order to obtain a corresponding percentage of inhibition. In practice, the initial rate (Vi) of the oxidation reaction is calculated from the linear part of the curve of the graph of the absorbance values. As this part lies between 10 and 40 minutes (see the graph in FIG. 1), the initial rate of the oxidation reaction is determined using the following relationship: [formula] The percentage of inhibition (% inhib) of a given compound with regard to the formation of the coloured product is subsequently obtained using the values of the initial rate of the oxidation reaction for the reference composition (Viref) and for the test composition ([…]) according to the following relationship: [formula] Within the meaning of the invention, a compound is regarded as having an inhibitory effect if the % inhib value is at least 15%.

[1] = test compound 100 μM, duration 0 minutes
[2] = test compound 100 μM, duration 10 minutes
[3] = test compound 100 μM, duration 20 minutes
[4] = test compound 100 μM, duration 30 minutes
[5] = test compound 100 μM, duration 40 minutes
[6] = test compound 100 μM, duration 60 minutes
[7] = test compound 100 μM, duration 80 minutes
[8] = test compound 100 μM, duration 100 minutes
[9] = test compound 100 μM, duration 120 minutes

CCNC(=O)c1ccc[nH]c1=S [Compound 1, N-ethyl-2-thioxo-1,2-dihydropyridine-3-carboxamide]
inhibiting the development of the colour (result in words): very effective | optical density at 475 nm (test compound 12.5 μM, duration 0 minutes): 0.0553 | optical density at 475 nm (test compound 12.5 μM, duration 10 minutes): 0.0553 | optical density at 475 nm (test compound 12.5 μM, duration 20 minutes): 0.0561 | optical density at 475 nm (test compound 12.5 μM, duration 30 minutes): 0.0569 | optical density at 475 nm (test compound 12.5 μM, duration 40 minutes): 0.0584 | optical density at 475 nm (test compound 12.5 μM, duration 60 minutes): 0.0605 | optical density at 475 nm (test compound 12.5 μM, duration 80 minutes): 0.0631 | optical density at 475 nm (test compound 12.5 μM, duration 100 minutes): 0.0661 | optical density at 475 nm (test compound 12.5 μM, duration 120 minutes): 0.0681 | % inhib (percentage of inhibition of the formation of the coloured product) (test compound 12.5 μM): 66% | optical density at 475 nm (test compound 25 μM, duration 0 minutes): 0.0554 | optical density at 475 nm (test compound 25 μM, duration 10 minutes): 0.0560 | optical density at 475 nm (test compound 25 μM, duration 20 minutes): 0.0572 | optical density at 475 nm (test compound 25 μM, duration 30 minutes): 0.0587 | optical density at 475 nm (test compound 25 μM, duration 40 minutes): 0.0596 | optical density at 475 nm (test compound 25 μM, duration 60 minutes): 0.0601 | optical density at 475 nm (test compound 25 μM, duration 80 minutes): 0.0611 | optical density at 475 nm (test compound 25 μM, duration 100 minutes): 0.0627 | optical density at 475 nm (test compound 25 μM, duration 120 minutes): 0.0640 | % inhib (percentage of inhibition of the formation of the coloured product) (test compound 25 μM): 60% | optical density at 475 nm (test compound 50 μM, duration 0 minutes): 0.0541 | optical density at 475 nm (test compound 50 μM, duration 10 minutes): 0.0565 | optical density at 475 nm (test compound 50 μM, duration 20 minutes): 0.0568 | optical density at 475 nm (test compound 50 μM, duration 30 minutes): 0.0569 | optical density at 475 nm (test compound 50 μM, duration 40 minutes): 0.0568 | optical density at 475 nm (test compound 50 μM, duration 60 minutes): 0.0575 | optical density at 475 nm (test compound 50 μM, duration 80 minutes): 0.0574 | optical density at 475 nm (test compound 50 μM, duration 100 minutes): 0.0598 | optical density at 475 nm (test compound 50 μM, duration 120 minutes): 0.0597 | % inhib (percentage of inhibition of the formation of the coloured product) (test compound 50 μM): 96% | optical density at 475 nm [1]: 0.0568 | optical density at 475 nm [2]: 0.0555 | optical density at 475 nm [3]: 0.0548 | optical density at 475 nm [4]: 0.0561 | optical density at 475 nm [5]: 0.0555 | optical density at 475 nm [6]: 0.0557 | optical density at 475 nm [7]: 0.0559 | optical density at 475 nm [8]: 0.0564 | optical density at 475 nm [9]: 0.0567 | % inhib (percentage of inhibition of the formation of the coloured product) (test compound 100 μM): 100%

O=C(O)CNC(=O)c1ccc[nH]c1=S [Compound 2, N-[(2-thioxo-1,2-dihydropyridin-3-yl)carbonyl]glycine]
inhibiting the development of the colour (result in words): very effective | optical density at 475 nm [1]: 0.0547 | optical density at 475 nm [2]: 0.0561 | optical density at 475 nm [3]: 0.0567 | optical density at 475 nm [4]: 0.0569 | optical density at 475 nm [5]: 0.0574 | optical density at 475 nm [6]: 0.0578 | optical density at 475 nm [7]: 0.0578 | optical density at 475 nm [8]: 0.0578 | optical density at 475 nm [9]: 0.0580 | % inhib (percentage of inhibition of the formation of the coloured product) (test compound 100 μM): 84%

— patent US20230372221A1, “USE OF THIOPYRIDINONE COMPOUNDS FOR PREVENTING THE FORMATION OF CUTANEOUS BLACKHEADS” (L'OREAL, priority 2020, published 2023)
